Source: US20250188069A1, “COMPOUNDS AND METHODS FOR DEGRADING CASEIN KINASE 1 ALPHA” (PIN THERAPEUTICS, INC., priority 2022, published 2025)

Assays:
MV-4-11 cells = test: AML cell viability assay (RealTime-Glo); format: cell-based; details: Homo sapiens, MV4-11; IC50 class; MV-4-11 cells, RealTime-Glo after 44 hrs of treatment (TABLE 5); read-out: Cell viability classification
CK1α = CK1α (Homo sapiens, UniProt P48729+Q96SW2); test: CK1α HiBiT assay in CK1a_HiBiT_Jurkat cells; format: cell-based; details: DC50 class, 16 hours, Nano-Glo HiBiT Lytic Detection, read-out: CK1α degradation classification
Method: CK1a_HiBiT_Jurkat cells were culture in RPMI 1640 medium (Gibco, 11875093) with 10% FBS under standard tissue culture conditions. Briefly, Compounds of the present disclosure was added to 30,000 cells in a white 96-well plate (9-point dose response, top concentration […], half-log serial dilution, final DMSO concentration 0.5%) and incubated for 16 hours. CK1a level was determined in along with the Nano-Glo HiBiT Lytic Detection system [Promega N3050] with final concentration of 1 x. The luminescence was normalized to that of DMSO-treated samples. DC50 values were obtained using three-parameter non-linear regressions using Prism (GraphPad). The compounds are classified based on DC50 values as follows. • A: DC50 is less than or equal to 1×10^−7; • B: DC50 is greater than 1×10^−7 & less than or equal to 1×10^−6; • C: DC50 is greater than 1×10^−6; • NA: not calculated (no activity detected, <25% viability reduction at 1 uM)

Chain of CK1α (P48729 whole entry): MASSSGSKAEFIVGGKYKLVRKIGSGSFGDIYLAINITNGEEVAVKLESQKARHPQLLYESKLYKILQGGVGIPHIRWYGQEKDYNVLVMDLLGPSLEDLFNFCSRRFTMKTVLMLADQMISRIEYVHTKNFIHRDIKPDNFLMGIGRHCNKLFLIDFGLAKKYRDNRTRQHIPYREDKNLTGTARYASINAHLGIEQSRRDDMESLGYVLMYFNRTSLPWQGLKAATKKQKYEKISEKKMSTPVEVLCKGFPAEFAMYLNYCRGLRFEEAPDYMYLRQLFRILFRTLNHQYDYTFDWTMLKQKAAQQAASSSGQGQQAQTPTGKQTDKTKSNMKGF
Chain of CK1α (Q96SW2 whole entry): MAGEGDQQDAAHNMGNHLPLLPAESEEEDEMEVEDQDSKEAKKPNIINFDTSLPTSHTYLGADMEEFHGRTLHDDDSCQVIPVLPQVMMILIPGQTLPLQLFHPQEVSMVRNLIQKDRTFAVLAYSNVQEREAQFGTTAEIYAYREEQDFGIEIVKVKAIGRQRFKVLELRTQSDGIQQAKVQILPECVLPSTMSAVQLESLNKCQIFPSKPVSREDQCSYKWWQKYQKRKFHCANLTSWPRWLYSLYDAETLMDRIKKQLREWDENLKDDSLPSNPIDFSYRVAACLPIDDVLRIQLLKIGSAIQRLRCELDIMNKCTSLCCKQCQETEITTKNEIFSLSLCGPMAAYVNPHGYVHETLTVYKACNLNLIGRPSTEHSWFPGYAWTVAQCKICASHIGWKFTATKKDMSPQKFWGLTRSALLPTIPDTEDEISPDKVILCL
Chain of CK1α (Q16531 whole entry partner): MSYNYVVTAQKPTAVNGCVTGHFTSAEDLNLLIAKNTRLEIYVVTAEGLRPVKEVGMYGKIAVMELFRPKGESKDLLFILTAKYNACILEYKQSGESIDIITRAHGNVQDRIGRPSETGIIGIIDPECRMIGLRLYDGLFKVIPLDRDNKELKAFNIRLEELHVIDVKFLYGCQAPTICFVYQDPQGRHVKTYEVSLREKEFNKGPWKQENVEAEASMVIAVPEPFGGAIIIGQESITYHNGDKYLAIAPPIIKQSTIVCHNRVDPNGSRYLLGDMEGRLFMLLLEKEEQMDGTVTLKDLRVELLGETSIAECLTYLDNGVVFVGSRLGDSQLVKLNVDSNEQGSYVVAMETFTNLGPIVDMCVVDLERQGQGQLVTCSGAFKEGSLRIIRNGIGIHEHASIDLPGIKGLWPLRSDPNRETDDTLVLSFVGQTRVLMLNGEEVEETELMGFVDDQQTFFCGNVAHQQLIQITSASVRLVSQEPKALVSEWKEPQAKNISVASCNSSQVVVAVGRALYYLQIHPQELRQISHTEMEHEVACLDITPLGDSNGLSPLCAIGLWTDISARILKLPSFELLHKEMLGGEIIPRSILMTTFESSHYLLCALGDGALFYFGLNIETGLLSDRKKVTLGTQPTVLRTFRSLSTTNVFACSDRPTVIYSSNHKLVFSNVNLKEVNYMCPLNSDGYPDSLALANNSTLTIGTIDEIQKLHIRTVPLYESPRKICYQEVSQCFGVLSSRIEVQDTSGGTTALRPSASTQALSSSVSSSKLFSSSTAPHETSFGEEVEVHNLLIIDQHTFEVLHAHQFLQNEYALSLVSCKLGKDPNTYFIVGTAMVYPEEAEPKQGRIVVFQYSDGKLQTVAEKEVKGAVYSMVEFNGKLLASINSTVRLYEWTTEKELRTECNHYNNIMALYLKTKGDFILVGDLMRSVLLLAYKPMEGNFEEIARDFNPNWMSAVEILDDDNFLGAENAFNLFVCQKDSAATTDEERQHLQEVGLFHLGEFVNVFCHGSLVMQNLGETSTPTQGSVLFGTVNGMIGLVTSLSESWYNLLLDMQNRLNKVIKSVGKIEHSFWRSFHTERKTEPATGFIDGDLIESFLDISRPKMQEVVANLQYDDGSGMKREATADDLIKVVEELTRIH

IC50 (MV-4-11 cells) [nM] | DC50 (CK1α) [nM] | SMILES
> 1000 | > 1000 | CC1(C)CC(CN(c2cccc3c2CN(C2CCC(=O)NC2=O)C3=O)[C@H]2CC[C@H](NCCC(F)(F)F)CC2)C1 (single isomer, unassigned) [Compound 652A, 3-(4-{[(3,3-dimethylcyclobutyl)methyl][(1s,4s)-4-[(3,3,3-trifluoropropyl)amino]cyclohexyl]amino}-1-oxo-3H-isoindol-2-yl)piperidine-2,6-dione; bis(trifluoroacetic acid)]
> 1000 | ≤ 100 | O=C1CCC(N2Cc3c(cccc3N(CCC3CC3)[C@H]3CC[C@@H](NCCCC(F)(F)F)CC3)C2=O)C(=O)N1 (some centres unmarked) [Compound 642A]
< 100 | ≤ 100 | O=C1CCC(N2Cc3c(cccc3N(CCC3CC3)[C@H]3CC[C@H](NCCC(F)F)CC3)C2=O)C(=O)N1 (some centres unmarked) [Compound 643, 3-{4-[(2-cyclopropylethyl)[(1r,4r)-4-[(3,3-difluoropropyl)amino]cyclohexyl]amino]-1-oxo-3H-isoindol-2-yl}piperidine-2,6-dione; trifluoroacetic acid]
100 to 1000 | ≤ 100 | O=C1CCC(N2Cc3c(cccc3N(CCC3CC3)[C@H]3CC[C@H](NC45CC(C(F)(F)F)(C4)C5)CC3)C2=O)C(=O)N1 (some centres unmarked) [Compound 646, 3-{4-[(2-cyclopropylethyl)[(1r,4r)-4-{[3-(trifluoromethyl)bicyclo[1.1.1]pentan-1-yl]amino}cyclohexyl]amino]-1-oxo-3H-isoindol-2-yl}piperidine-2,6-dione; trifluoroacetic acid]
100 to 1000 | ≤ 100 | O=C1CCC(N2Cc3c(cccc3N(CC3CC(F)(F)C3)[C@H]3CC[C@H](NCCC(F)(F)F)CC3)C2=O)C(=O)N1 (some centres unmarked) [Compound 650, 3-(4-{[(3,3-difluorocyclobutyl)methyl][(1r,4r)-4-[(3,3,3-trifluoropropyl)amino]cyclohexyl]amino}-1-oxo-3H-isoindol-2-yl)piperidine-2,6-dione]
> 1000 | ≤ 100 | O=C1CCC(N2Cc3c(cccc3N(CC3CC4(CCC4)C3)[C@H]3CC[C@H](NCCC(F)(F)F)CC3)C2=O)C(=O)N1 (some centres unmarked) [Compound 651, 3-(1-oxo-4-{[(1r,4r)-4-[(3,3,3-trifluoropropyl)amino]cyclohexyl]({spiro[3.3]heptan-2-ylmethyl})amino}-3H-isoindol-2-yl)piperidine-2,6-dione; trifluoroacetic acid]
> 1000 | ≤ 100 | CC1(C)CC(CN(c2cccc3c2CN(C2CCC(=O)NC2=O)C3=O)[C@H]2CC[C@H](NCCC(F)(F)F)CC2)C1 (some centres unmarked) [Compound 652, 3-(4-{[(3,3-dimethylcyclobutyl)methyl][(1r,4r)-4-[(3,3,3-trifluoropropyl)amino]cyclohexyl]amino}-1-oxo-3H-isoindol-2-yl)piperidine-2,6-dione; bis(trifluoroacetic acid)]
> 1000 | 100 to 1000 | O=C1CCC(N2Cc3c(cccc3N(CC3CC(F)(F)C3)[C@H]3CC[C@H](NCC4(C(F)(F)F)CC4)CC3)C2=O)C(=O)N1 (some centres unmarked) [Compound 655, 3-(4-{[(3,3-difluorocyclobutyl)methyl][(1r,4r)-4-({[1-(trifluoromethyl)cyclopropyl]methyl}amino)cyclohexyl]amino}-1-oxo-3H-isoindol-2-yl)piperidine-2,6-dione]
100 to 1000 | 100 to 1000 | O=C1CCC(N2Cc3c(cccc3N(CC3CC4(CCC4)C3)[C@H]3CC[C@H](NCC4(C(F)(F)F)CC4)CC3)C2=O)C(=O)N1 (some centres unmarked) [Compound 656, 3-(1-oxo-4-{[(1r,4r)-4-({[1-(trifluoromethyl)cyclopropyl]methyl}amino)cyclohexyl]({spiro[3.3]heptan-2-ylmethyl})amino}-3H-isoindol-2-yl)piperidine-2,6-dione; trifluoroacetic acid]
> 1000 | 100 to 1000 | CC1(C)CC(CN(c2cccc3c2CN(C2CCC(=O)NC2=O)C3=O)[C@H]2CC[C@H](NCC3(C(F)(F)F)CC3)CC2)C1 (some centres unmarked) [Compound 657, 3-(4-{[(3,3-dimethylcyclobutyl)methyl][(1r,4r)-4-({[1-(trifluoromethyl)cyclopropyl]methyl}amino)cyclohexyl]amino}-1-oxo-3H-isoindol-2-yl)piperidine-2,6-dione; bis(trifluoroacetic acid)]
– | > 1000 | CC1(C)CC(CN(c2cccc3c2CN(C2CCC(=O)NC2=O)C3=O)[C@H]2CC[C@@H](NCC3(C(F)(F)F)CC3)CC2)C1 (some centres unmarked) [Compound 657A, 3-(4-{[(3,3-dimethylcyclobutyl)methyl][(1s,4s)-4-({[1-(trifluoromethyl)cyclopropyl]methyl}amino)cyclohexyl]amino}-1-oxo-3H-isoindol-2-yl)piperidine-2,6-dione; bis(trifluoroacetic acid)]
100 to 1000 | ≤ 100 | O=C1CCC(N2Cc3c(cc(F)cc3N(CCC3CC3)[C@H]3CC[C@H](NCC4(C(F)(F)F)CC4)CC3)C2=O)C(=O)N1 (some centres unmarked) [Compound 658, 3-{4-[(2-cyclopropylethyl)[(1r,4r)-4-({[1-(trifluoromethyl)cyclopropyl]methyl}amino)cyclohexyl]amino]-6-fluoro-1-oxo-3H-isoindol-2-yl}piperidine-2,6-dione]
> 1000 | 100 to 1000 | O=C1CCC(N2Cc3c(cc(F)cc3N(CCC3CC3)[C@H]3CC[C@@H](NCC4(C(F)(F)F)CC4)CC3)C2=O)C(=O)N1 (some centres unmarked) [Compound 658A, 3-{4-[(2-cyclopropylethyl)[(1s,4s)-4-({[1-(trifluoromethyl)cyclopropyl]methyl}amino)cyclohexyl]amino]-6-fluoro-1-oxo-3H-isoindol-2-yl}piperidine-2,6-dione]
100 to 1000 | ≤ 100 | NC(=O)C12CC(N(CCC3CC3)c3cccc4c3CN(C3CCC(=O)NC3=O)C4=O)(C1)C2 (centres unmarked) [Compound 659, 3-[(2-cyclopropylethyl)[2-(2,6-dioxopiperidin-3-yl)-1-oxo-3H-isoindol-4-yl]amino]bicyclo[1.1.1]pentane-1-carboxamide]
100 to 1000 | ≤ 100 | NCC12CC(N(CCC3CC3)c3cccc4c3CN(C3CCC(=O)NC3=O)C4=O)(C1)C2 (centres unmarked) [Compound 660, 3-(4-{[3-(aminomethyl)bicyclo[1.1.1]pentan-1-yl](2-cyclopropylethyl)amino}-1-oxo-3H-isoindol-2-yl)piperidine-2,6-dione]
100 to 1000 | ≤ 100 | O=C1CCC(N2Cc3c(cccc3N(CCC3CC3)[C@H]3CC[C@H](NCc4ncco4)CC3)C2=O)C(=O)N1 (some centres unmarked) [Compound 662]
– | 100 to 1000 | O=C1CCC(N2Cc3c(cccc3N(CCC3CC3)[C@H]3CC[C@@H](N4CCCC4)CC3)C2=O)C(=O)N1 (some centres unmarked) [Compound 669A]
– | 100 to 1000 | O=C1CCC(N2Cc3c(cccc3N(CCC3CC3)[C@H]3CC[C@@H](N4CCC(F)(F)C4)CC3)C2=O)C(=O)N1 (some centres unmarked) [Compound 670A]
– | 100 to 1000 | O=C1CCC(N2Cc3c(cccc3N(CCC3CC3)[C@H]3CC[C@@H](N4CCC(F)C4)CC3)C2=O)C(=O)N1 (some centres unmarked) [Compound 671A, 3-{4-[(2-cyclopropylethyl)[(1s,4s)-4-(3-fluoropyrrolidin-1-yl)cyclohexyl]amino]-1-oxo-3H-isoindol-2-yl}piperidine-2,6-dione]
– | 100 to 1000 | O=C1CCC(N2Cc3c(cccc3N(CCC3CC3)[C@H]3CC[C@@H](N4CCC(C(F)(F)F)C4)CC3)C2=O)C(=O)N1 (some centres unmarked) [Compound 672A, 3-{4-[(2-cyclopropylethyl)[(1s,4s)-4-[3-(trifluoromethyl)pyrrolidin-1-yl]cyclohexyl]amino]-1-oxo-3H-isoindol-2-yl}piperidine-2,6-dione; trifluoroacetic acid]
– | 100 to 1000 | O=C1CCC(N2Cc3c(cccc3N(CCC3CC3)[C@H]3CC[C@@H](N4CC(C(F)(F)F)C4)CC3)C2=O)C(=O)N1 (some centres unmarked) [Compound 673A]
– | 100 to 1000 | O=C1CCC(N2Cc3c(cccc3N(CCC3CC3)[C@H]3CC[C@@H](N4CCOCC4)CC3)C2=O)C(=O)N1 (some centres unmarked) [Compound 674A, 3-{4-[(2-cyclopropylethyl)[(1s,4s)-4-(morpholin-4-yl)cyclohexyl]amino]-1-oxo-3H-isoindol-2-yl}piperidine-2,6-dione]
– | 100 to 1000 | O=C1CCC(N2Cc3c(cccc3N(CCC3CC3)[C@H]3CC[C@@H](N[C@H]4CC[C@@H]4C(F)(F)F)CC3)C2=O)C(=O)N1 (stereo partly drawn) [Compound 675A, 3-{4-[(2-cyclopropylethyl)[(1s,4s)-4-{[(1S,2S)-2-(trifluoromethyl)cyclobutyl]amino}cyclohexyl]amino]-1-oxo-3H-isoindol-2-yl}piperidine-2,6-dione; bis(trifluoroacetic acid)]
– | 100 to 1000 | COCCN(C)[C@H]1CC[C@@H](N(CCC2CC2)c2cccc3c2CN(C2CCC(=O)NC2=O)C3=O)CC1 (some centres unmarked) [Compound 680A]
– | 100 to 1000 | CN(CCCC(F)(F)F)[C@H]1CC[C@@H](N(CCC2CC2)c2cccc3c2CN(C2CCC(=O)NC2=O)C3=O)CC1 (some centres unmarked) [Compound 681A, 3-{4-[(2-cyclopropylethyl)[(1s,4s)-4-[methyl(4,4,4-trifluorobutyl)amino]cyclohexyl]amino]-1-oxo-3H-isoindol-2-yl}piperidine-2,6-dione]
– | 100 to 1000 | CN(CCC(F)(F)F)[C@H]1CC[C@@H](N(CCC2CC2)c2cccc3c2CN(C2CCC(=O)NC2=O)C3=O)CC1 (some centres unmarked) [Compound 682A]
